Legend:
NOMO1 [1] = assay: cell viability relative to DMSO control; higher = less cytotoxic; conditions: HPLM + 10% dialyzed FBS, 48 h
Summary of the method: (§1)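 In 1536-well plates, 5 μl of leukemia cells were seeded per well: 500 cells/well for NOMO1 or SEM and 1000 cells/well for P12-Ichikawa. Each line had first been adapted for at least four passages in each medium. Library compounds in DMSO were pin-dosed at 11 threefold concentrations between 47 μM and 0.79 nM, and CellTiter-Glo One luminescence was read after 48 h at 37°C. Viability is a per-plate percentage relative to DMSO wells, with cell-free wells as background.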

SEM cells [2] = assay: as above; conditions: 48 h
Summary of the method: as §1

P12-Ichikawa [3] = assay: as above; conditions: 48 h
Summary of the method: as §1

NOMO1 [4] = assay: AUC of viability dose-response curve (% viability x log10 dose units); higher = less sensitive; conditions: 48 h
Summary of the method: (§2)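 Area under the curve was integrated by trapezoidal rule from a log-logistic fit of normalised viability, with curves exceeding full viability scaled and quality-control failures removed. The fit had four parameters over log10 doses. Viability came from CellTiter-Glo One luminescence, normalised per plate to DMSO and cell-free wells, after leukemia cells adapted to each medium (500 or 1000 cells/well, 1536-well plates) were exposed to library compounds in DMSO for 48 h at 37°C. The 11 threefold doses ran from 47 μM to 0.79 nM.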

SEM cells [5] = assay: as above; conditions: 48 h
Summary of the method: as §2

P12-Ichikawa [6] = assay: as above; conditions: 48 h
Summary of the method: as §2

O=S(=O)([O-])CCS.[Na+]
Conditions | AUC of viability dose-response curve | cell viability [%]
NOMO1 [1], 0.000781 µM | – | 100
NOMO1 [1], 0.00234 µM | – | 141
NOMO1 [1], 0.00702 µM | – | 124
NOMO1 [1], 0.0211 µM | – | 131
NOMO1 [1], 0.0632 µM | – | 130
NOMO1 [1], 0.19 µM | – | 112
NOMO1 [1], 0.569 µM | – | 123
NOMO1 [1], 1.71 µM | – | 44.1
NOMO1 [1], 5.12 µM | – | 38.9
NOMO1 [1], 15.4 µM | – | 46.4
NOMO1 [1], 46.1 µM | – | 37.5
NOMO1 [4], HPLM + 10% dialyzed FBS | 367 | –
NOMO1 [4], RPMI 5 mM glucose + 10% FBS | 341 | –
NOMO1 [4], RPMI 5 mM glucose + 10% dialyzed FBS | 351 | –
P12-Ichikawa [6], HPLM + 10% dialyzed FBS | 379 | –
P12-Ichikawa [6], RPMI 5 mM glucose + 10% FBS | 383 | –
P12-Ichikawa [6], RPMI 5 mM glucose + 10% dialyzed FBS | 407 | –
SEM cells [5], HPLM + 10% dialyzed FBS | 452 | –
SEM cells [5], RPMI 5 mM glucose + 10% FBS | 443 | –
SEM cells [5], RPMI 5 mM glucose + 10% dialyzed FBS | 405 | –

cell viability [%]
Conditions | HPLM + 10% dialyzed FBS | RPMI 5 mM glucose + 10% FBS | RPMI 5 mM glucose + 10% dialyzed FBS
P12-Ichikawa [3], 0.000781 µM | 109 | 100 | 114
P12-Ichikawa [3], 0.00234 µM | 122 | 114 | 121
P12-Ichikawa [3], 0.00702 µM | 125 | 116 | 121
P12-Ichikawa [3], 0.0211 µM | 119 | 118 | 120
P12-Ichikawa [3], 0.0632 µM | 127 | 132 | 130
P12-Ichikawa [3], 0.19 µM | 126 | 121 | 131
P12-Ichikawa [3], 0.569 µM | 126 | 136 | 135
P12-Ichikawa [3], 1.71 µM | 129 | 134 | 139
P12-Ichikawa [3], 5.12 µM | 30.8 | 37 | 80.8
P12-Ichikawa [3], 15.4 µM | 18.1 | 18.5 | 43.2
P12-Ichikawa [3], 46.1 µM | 15.3 | 16.7 | 20.1
SEM cells [2], 0.000781 µM | 96.5 | 101 | 109
SEM cells [2], 0.00234 µM | 104 | 102 | 104
SEM cells [2], 0.00702 µM | 100 | 89.6 | 108
SEM cells [2], 0.0211 µM | 96.9 | 124 | 108
SEM cells [2], 0.0632 µM | 113 | 107 | 114
SEM cells [2], 0.19 µM | 113 | 115 | 137
SEM cells [2], 0.569 µM | 122 | 109 | 130
SEM cells [2], 1.71 µM | 107 | 124 | 135
SEM cells [2], 5.12 µM | 100 | 112 | 121
SEM cells [2], 15.4 µM | 116 | 123 | 137
SEM cells [2], 46.1 µM | 107 | 122 | 155

Cl.Cl.Clc1ccc(Nc2nnc(Cc3ccncc3)c3ccccc23)cc1
AUC of viability dose-response curve
Conditions | NOMO1 [4] | P12-Ichikawa [6] | SEM cells [5]
HPLM + 10% dialyzed FBS | 448 | 442 | 449
RPMI 5 mM glucose + 10% FBS | 469 | 472 | 446
RPMI 5 mM glucose + 10% dialyzed FBS | 460 | 446 | 357

Cc1nc(NC(=O)N2CCC[C@H]2C(N)=O)sc1-c1csc(C(C)(C)C)n1
AUC of viability dose-response curve
Conditions | NOMO1 [4] | P12-Ichikawa [6] | SEM cells [5]
HPLM + 10% dialyzed FBS | 323 | 331 | 309
RPMI 5 mM glucose + 10% FBS | 346 | 334 | 302
RPMI 5 mM glucose + 10% dialyzed FBS | 335 | 350 | 312

Reference: the supplement of paper PMC11451515
